Drawing on patent US10047104B2, “Bicyclic heterocyclyl derivatives as IRAK4 inhibitors” (Aurigene Discovery Technologies Limited, priority 2014, dated 2018), this text covers IC50 for 12 compounds.

The term IC50 denotes the concentration at which inhibition is half-maximal.

Structures are written as SMILES. Where a name gives a salt, the structure may show the parent alone.

In this assay the target is T1, recombinant IRAK-4 kinase (Homo sapiens, UniProt Q9NWZ3).
T1 construct: purchased Millipore, USA
T1 sequence (Q9NWZ3 1-460): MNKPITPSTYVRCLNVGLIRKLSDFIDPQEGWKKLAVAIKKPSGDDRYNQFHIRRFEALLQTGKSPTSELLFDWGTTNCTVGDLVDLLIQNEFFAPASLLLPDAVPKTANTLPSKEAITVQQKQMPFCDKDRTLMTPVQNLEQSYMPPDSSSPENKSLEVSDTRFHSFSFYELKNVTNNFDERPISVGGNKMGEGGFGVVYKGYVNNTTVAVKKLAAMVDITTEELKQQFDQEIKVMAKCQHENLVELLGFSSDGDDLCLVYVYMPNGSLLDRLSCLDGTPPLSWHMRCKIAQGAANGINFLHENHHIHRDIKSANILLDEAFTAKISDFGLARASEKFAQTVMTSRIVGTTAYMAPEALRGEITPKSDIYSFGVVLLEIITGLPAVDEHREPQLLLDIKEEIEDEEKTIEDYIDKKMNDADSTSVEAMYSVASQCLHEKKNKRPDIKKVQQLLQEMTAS
Put plainly: IRAK-4 Biochemical Assay (TR-FRET). The conditions noted are these: 5 ng IRAK-4 kinase, 100 nM Biotin Histone H3, 20 μM ATP, 30 minutes pre-incubation, read-out: IC50 values for IRAK4 activity. The procedure, abridged: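 Recombinant IRAK-4 (5 ng) pre-incubated with compound 30 min at room temperature in Tris-HCl pH 7.5 with MgCl2/MnCl2, then 100 nM biotin-histone H3 and 20 μM ATP added for 30 min. Stopped with EDTA; phospho-Ser10 read by TR-FRET (Eu-antibody/APC-streptavidin).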
As for `Cc1cc(-c2nc(C(=O)Nc3cc4sc(N5CCCC(O)C5)nc4nc3N3CCC(F)CC3)co2)ccn1` (stereo not drawn) [Example 133, N-(5-(4-fluoropiperidin-1-yl)-2-(3-hydroxypiperidin-1-yl)thiazolo[4,5-b]pyridin-6-yl)-2-(2-methylpyridin-4-yl)oxazole-4-carboxamide], the IC50 is below 50 nM.

As to `Cc1cc(-c2nc(C(=O)Nc3cc4sc(N5CCOCC5)nc4nc3N3CCCC3)co2)ccn1` [Example 89, 2-(2-methylpyridin-4-yl)-N-(2-morpholino-5-(pyrrolidin-1-yl)thiazolo[4,5-b]pyridin-6-yl)oxazole-4-carboxamide], the IC50 is below 50 nM.

As for `Cn1cc(-c2cccc(C(=O)Nc3cc4oc(N5CCCCC5)nc4nc3N3CCCCC3)n2)cn1` [Example 9, N-(2,5-di(piperidin-1-yl)oxazolo[4,5-b]pyridin-6-yl)-6-(1-methyl-1H-pyrazol-4-yl)picolinamide], the IC50 is 50 to 100 nM.

Turning to `Cc1ccc(-c2nc(C(=O)Nc3cc4sc(N5CCOCC5)nc4nc3N3CCCCC3)co2)cn1` [Example 60, 2-(6-methylpyridin-3-yl)-N-(2-morpholino-5-(piperidin-1-yl)thiazolo[4,5-b]pyridin-6-yl)oxazole-4-carboxamide], the IC50 was below 50 nM.

`Cc1ncccc1-c1nc(C(=O)Nc2cc3sc(N4CCCCC4)nc3nc2N2CCCCC2)co1` [Example 52, N-(2,5-di(piperidin-1-yl)thiazolo[4,5-b]pyridin-6-yl)-2-(2-methylpyridin-3-yl)oxazole-4-carboxamide hydrochloride]: the IC50 was below 50 nM.

Take `Cc1cnccc1-c1nc(C(=O)Nc2cc3oc(N4CCOCC4)nc3nc2N2CCCCC2)co1` [Example 33, 2-(3-methylpyridin-4-yl)-N-(2-morpholino-5-(piperidin-1-yl)oxazolo[4,5-b]pyridin-6-yl)oxazole-4-carboxamide]: the half-maximal inhibitory concentration (IC50) is below 50 nM.

As to `Cc1cc(-c2ccc(C(=O)Nc3cc4oc(N5CCOCC5)nc4nc3N3CC[C@H](O)C3)s2)ccn1` [Example 108, (S)—N-(5-(3-hydroxypyrrolidin-1-yl)-2-morpholinooxazolo[4,5-b]pyridin-6-yl)-5-(2-methylpyridin-4-yl)thiophene-2-carboxamide], the IC50 is above 100 nM.

On to `Cc1cc(-c2ccc(C(=O)Nc3cc4oc(N5CCOCC5)nc4nc3N3CCC(O)CC3)o2)ccn1` [Example 114, N-(5-(4-hydroxypiperidin-1-yl)-2-morpholinooxazolo[4,5-b]pyridin-6-yl)-5-(2-methylpyridin-4-yl)furan-2-carboxamide], for which the IC50 was below 50 nM.

Take `Cc1cc(-c2nc(C(=O)Nc3cc4sc(N5CCOCC5)nc4nc3-c3cnn(C)c3)co2)ccn1` [Example 99, N-(5-(1-methyl-1H-pyrazol-4-yl)-2-morpholinothiazolo[4,5-b]pyridin-6-yl)-2-(2-methylpyridin-4-yl)oxazole-4-carboxamide]: the IC50 is below 50 nM.

Turning to `O=C(Nc1cc2sc(N3CCOCC3)nc2nc1N1CCCCC1)c1coc(N2CC[C@H](O)C2)n1` [Example 70, (S)-2-(3-hydroxypyrrolidin-1-yl)-N-(2-morpholino-5-(piperidin-1-yl)thiazolo[4,5-b]pyridin-6-yl)oxazole-4-carboxamide], the IC50 is below 50 nM.

On to `Cc1cc(-c2nc(C(=O)Nc3cc4sc(N5CCCCC5)nc4nc3N3CCC3)co2)ccn1` [Example 87, N-(5-(azetidin-1-yl)-2-(piperidin-1-yl)thiazolo[4,5-b]pyridin-6-yl)-2-(2-methylpyridin-4-yl)oxazole-4-carboxamide], for which the IC50 was below 50 nM.

Turning to `Nc1cc(-c2ccc(C(=O)Nc3cc4sc(N5CCOCC5)nc4nc3N3CCC(O)CC3)o2)ccn1` [Example 129, 5-(2-aminopyridin-4-yl)-N-(5-(4-hydroxypiperidin-1-yl)-2-morpholinothiazolo[4,5-b]pyridin-6-yl)furan-2-carboxamide hydrochloride], the IC50 is below 50 nM.
